Reference: paper PMC12217544 (Scientific Reports, 2025)
Values after ≈ are worked out from the molar mass of the structure shown.

What was measured:
A549 cells = details: MTT, ref [75]; cited from earlier work
[1] = tested on: A/Puerto Rico/8/1934 H1N1; details: A/Puerto Rico/8/1934 H1N1, quantitative real-time PCR; ref [75]; cited from earlier work
SARS-CoV-2 = details: SARS-CoV-2, Vero E6; ref [76]; cited from earlier work
in vitro = details: African green monkey, CC50, Vero E6 cells, crystal violet, 3 days
Vero E6 cells = details: MTT assay, ref [76]; cited from earlier work

Cc1ccc(C(C)C)c(O)c1 [Thymol]
half-maximal cytotoxic concentration (A549 cells): 49.4 µg/mL
concentration that effectively reduced the viral titer [1]: 25 µg/mL
viral inhibition percentage (plaque reduction) (SARS-CoV-2): 96%
CC50 (in vitro): 63.3 µg/mL (≈ 421 µM)
CC50 (Vero E6 cells): 617 µM
